Laboratory results from PubChem BioAssay AID2060605 (Molecular Pharmacology Branch, DTP, NCI, 2025).
Several values for one entry are separate records, joined by “and”; a condition that tells them apart may be missing. Equal entries are not always repeated. Blank lines part the entries; values can stand above or below the compound they belong to.

Test system: 947758-054-R-J2-PDC spheroid growth, percent test/control
Experiment: Anticancer human tumor 947758-054-R-J2-PDC patient-derived colon adenocarcinoma cell line growth inhibition [CLK]
Conditions: spheroids with HUVEC and MSC; for viability, T/C: stronger effect = lower value
In short: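 Multi-cell-type spheroids combined patient-derived tumor cells with HUVEC endothelial cells and human mesenchymal stem cells. Paired agents were dosed in half-log steps down from about clinical Cmax, or from 10 microM where Cmax was unknown.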

[1] = curve of first compound, second compound 0.0316 µM
[2] = curve of first compound, second compound 0.1 µM
[3] = curve of first compound, second compound 0.316 µM
[4] = curve of first compound, second compound 1 µM
[5] = curve of first compound, second compound 3.16 µM
[6] = curve of first compound, second compound 10 µM
[7] = second compound 0.0316 µM, first compound 0.0316 µM
[8] = second compound 0.0316 µM, first compound 0.1 µM
[9] = second compound 0.0316 µM, first compound 0.316 µM
[10] = second compound 0.0316 µM, first compound 1 µM
[11] = second compound 0.0316 µM, first compound 3.16 µM
[12] = second compound 0.0316 µM, first compound 10 µM
[13] = second compound 0.1 µM, first compound 0.0316 µM
[14] = second compound 0.1 µM, first compound 0.1 µM
[15] = second compound 0.1 µM, first compound 0.316 µM
[16] = second compound 0.1 µM, first compound 1 µM
[17] = second compound 0.1 µM, first compound 3.16 µM
[18] = second compound 0.1 µM, first compound 10 µM
[19] = second compound 0.316 µM, first compound 0.0316 µM
[20] = second compound 0.316 µM, first compound 0.1 µM
[21] = second compound 0.316 µM, first compound 0.316 µM
[22] = second compound 0.316 µM, first compound 1 µM
[23] = second compound 0.316 µM, first compound 3.16 µM
[24] = second compound 0.316 µM, first compound 10 µM
[25] = second compound 1 µM, first compound 0.0316 µM
[26] = second compound 1 µM, first compound 0.1 µM
[27] = second compound 1 µM, first compound 0.316 µM
[28] = second compound 1 µM, first compound 1 µM
[29] = second compound 1 µM, first compound 3.16 µM
[30] = second compound 1 µM, first compound 10 µM
[31] = second compound 3.16 µM, first compound 0.0316 µM
[32] = second compound 3.16 µM, first compound 0.1 µM
[33] = second compound 3.16 µM, first compound 0.316 µM
[34] = second compound 3.16 µM, first compound 1 µM
[35] = second compound 3.16 µM, first compound 3.16 µM
[36] = second compound 3.16 µM, first compound 10 µM
[37] = second compound 10 µM, first compound 0.0316 µM
[38] = second compound 10 µM, first compound 0.1 µM
[39] = second compound 10 µM, first compound 0.316 µM
[40] = second compound 10 µM, first compound 1 µM
[41] = second compound 10 µM, first compound 3.16 µM
[42] = second compound 10 µM, first compound 10 µM
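Note: spheroids exposed to compounds for one week before readout.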
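Throughout, for viability, T/C: 100% = DMSO vehicle control wells.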

Structure (SMILES): C#Cc1c(F)ccc2cc(O)cc(-c3ncc4c(N5CC6CCC(C5)N6)nc(OCC56CCCN5CC(F)C6)nc4c3F)c12 (configuration not stated) + CN1CCN(c2cc(C(=O)Nc3cc4cc(-c5cnn(C)c5)ccc4cn3)ccn2)CC1
- IC50 [1]: > 10000 nM
- IC50 [2]: > 10000 nM
- IC50 [3]: < 31.6 nM
- IC50 [4]: < 31.6 nM
- IC50 [5]: < 31.6 nM
- IC50 [6]: < 31.6 nM
- viability, T/C [7]: 103%
- viability, T/C [8]: 123%
- viability, T/C [9]: 126%
- viability, T/C [10]: 73.3%
- viability, T/C [11]: 107%
- viability, T/C [12]: 118%
- viability, T/C [13]: 145%
- viability, T/C [14]: 214%
- viability, T/C [15]: 187%
- viability, T/C [16]: 214%
- viability, T/C [17]: 216%
- viability, T/C [18]: 148%
- viability, T/C [19]: 5.41%
- viability, T/C [20]: 7.64%
- viability, T/C [21]: 7.09%
- viability, T/C [22]: 6.71%
- viability, T/C [23]: 6%
- viability, T/C [24]: 5.97%
- viability, T/C [25]: 0.17%
- viability, T/C [26]: 0.21%
- viability, T/C [27]: 0.18%
- viability, T/C [28]: 0.22%
- viability, T/C [29]: 0.19%
- viability, T/C [30]: 0.21%
- viability, T/C [31]: 0.19%
- viability, T/C [32]: 0.24%
- viability, T/C [33]: 0.24%
- viability, T/C [34]: 0.2%
- viability, T/C [35]: 0.23%
- viability, T/C [36]: 0.67%
- viability, T/C [37]: 0.38%
- viability, T/C [38]: 0.42%
- viability, T/C [39]: 0.33%
- viability, T/C [40]: 0.37%
- viability, T/C [41]: 0.37%
- viability, T/C [42]: 0.26%

Structure (SMILES): CC(C)CC(NC(=O)C(Cc1ccccc1)NC(=O)c1cnccn1)B(O)O (configuration not stated)
- viability, T/C (compound 0.000949 µM): 89.3% and 86%
- viability, T/C (compound 0.003 µM): 2.43% and 0.8%
- viability, T/C (compound 0.00949 µM): 0.17% and 0.23%
- viability, T/C (compound 0.03 µM): 0.24% and 0.3%
- viability, T/C (compound 0.0949 µM): 0.19% and 0.27%
- viability, T/C (compound 0.3 µM): 0.24% and 0.28%
- IC50 (curve of compound): 1.6 nM and 1.54 nM

Structure (SMILES): CCCS(=O)(=O)Nc1ccc(F)c(C(=O)c2c[nH]c3ncc(-c4ccc(Cl)cc4)cc23)c1F
- viability, T/C (compound 0.0316 µM): 81.8% and 79.5%
- viability, T/C (compound 0.1 µM): 79.8% and 65%
- viability, T/C (compound 0.316 µM): 79.4% and 71%
- viability, T/C (compound 1 µM): 77.4% and 68.7%
- viability, T/C (compound 3.16 µM): 83.3% and 76.3%
- viability, T/C (compound 10 µM): 80.2% and 70.7%
- IC50 (curve of compound): > 10000 nM

More lines, main results first:

- IC50 [1]: 6100 nM
- IC50 [2]: 4950 nM
- IC50 [3]: 3830 nM
- IC50 [4]: < 31.6 nM
- IC50 [5]: < 31.6 nM
- IC50 [6]: < 31.6 nM
Structure (SMILES): C=C(F)C(=O)N1CCN(c2nc(OCC3CCCN3C)nc3c2CCN(c2cccc4cccc(Cl)c24)C3)CC1CC#N (configuration not stated) + CNC(=O)c1ccc(Nc2nc(OC3CCCC3)c3c(-c4ccc5nc(C)oc5c4)c[nH]c3n2)c(OC)c1
- viability, T/C [7]: 88.6%
- viability, T/C [8]: 66.7%
- viability, T/C [9]: 83.4%
- viability, T/C [10]: 99.7%
- viability, T/C [11]: 132%
- viability, T/C [12]: 16.8%
- viability, T/C [13]: 96.9%
- viability, T/C [14]: 71.1%
- viability, T/C [15]: 79.6%
- viability, T/C [16]: 98%
- viability, T/C [17]: 76.9%
- viability, T/C [18]: 7.83%
- viability, T/C [19]: 76.9%
- viability, T/C [20]: 65.9%
- viability, T/C [21]: 57.6%
- viability, T/C [22]: 77.2%
- viability, T/C [23]: 59.2%
- viability, T/C [24]: 3.73%
- viability, T/C [25]: 38.5%
- viability, T/C [26]: 34.6%
- viability, T/C [27]: 35.7%
- viability, T/C [28]: 54.8%
- viability, T/C [29]: 47.5%
- viability, T/C [30]: 0.18%
- viability, T/C [31]: 41.5%
- viability, T/C [32]: 34.3%
- viability, T/C [33]: 31.2%
- viability, T/C [34]: 47.8%
- viability, T/C [35]: 32.4%
- viability, T/C [36]: 0.49%
- viability, T/C [37]: 29.4%
- viability, T/C [38]: 33.3%
- viability, T/C [39]: 30%
- viability, T/C [40]: 30.2%
- viability, T/C [41]: 21.6%
- viability, T/C [42]: 0.36%

- IC50 [1]: 3050 nM
- IC50 [2]: 2220 nM
- IC50 [3]: 1820 nM
- IC50 [4]: 308 nM
- IC50 [5]: 196 nM
- IC50 [6]: < 31.6 nM
Structure (SMILES): CC1COCCN1c1cc(C2(S(C)(=N)=O)CC2)nc(-c2ccnc3[nH]ccc23)n1 (configuration not stated) + CNC(=O)c1ccc(Nc2nc(OC3CCCC3)c3c(-c4ccc5nc(C)oc5c4)c[nH]c3n2)c(OC)c1
- viability, T/C [7]: 95.8%
- viability, T/C [8]: 103%
- viability, T/C [9]: 114%
- viability, T/C [10]: 87%
- viability, T/C [11]: 49.7%
- viability, T/C [12]: 22.2%
- viability, T/C [13]: 110%
- viability, T/C [14]: 105%
- viability, T/C [15]: 91.6%
- viability, T/C [16]: 88.8%
- viability, T/C [17]: 32.8%
- viability, T/C [18]: 18.8%
- viability, T/C [19]: 90.5%
- viability, T/C [20]: 93%
- viability, T/C [21]: 71.8%
- viability, T/C [22]: 68%
- viability, T/C [23]: 36%
- viability, T/C [24]: 13.2%
- viability, T/C [25]: 72.4%
- viability, T/C [26]: 53.3%
- viability, T/C [27]: 48.5%
- viability, T/C [28]: 45.8%
- viability, T/C [29]: 22%
- viability, T/C [30]: 8.76%
- viability, T/C [31]: 66.8%
- viability, T/C [32]: 43.6%
- viability, T/C [33]: 47.2%
- viability, T/C [34]: 45.7%
- viability, T/C [35]: 19.3%
- viability, T/C [36]: 8.82%
- viability, T/C [37]: 50.7%
- viability, T/C [38]: 44.7%
- viability, T/C [39]: 40.5%
- viability, T/C [40]: 26.7%
- viability, T/C [41]: 15.1%
- viability, T/C [42]: 9.5%

- IC50 [1]: 75.4 nM
- IC50 [2]: 94.9 nM
- IC50 [3]: 59.4 nM
- IC50 [4]: < 31.6 nM
- IC50 [5]: < 31.6 nM
- IC50 [6]: < 31.6 nM
Structure (SMILES): CC(Nc1ccc2c(c1)OCCn1cc(N3C(=O)OCC3C(F)F)nc1-2)C(N)=O (configuration not stated) + CNC(=O)c1ccc(Nc2nc(OC3CCCC3)c3c(-c4ccc5nc(C)oc5c4)c[nH]c3n2)c(OC)c1
- viability, T/C [7]: 55.6%
- viability, T/C [8]: 51.5%
- viability, T/C [9]: 39.4%
- viability, T/C [10]: 35.8%
- viability, T/C [11]: 39%
- viability, T/C [12]: 33.7%
- viability, T/C [13]: 70.7%
- viability, T/C [14]: 46.2%
- viability, T/C [15]: 36.2%
- viability, T/C [16]: 35%
- viability, T/C [17]: 28%
- viability, T/C [18]: 20.8%
- viability, T/C [19]: 64.6%
- viability, T/C [20]: 37.9%
- viability, T/C [21]: 16.9%
- viability, T/C [22]: 22.7%
- viability, T/C [23]: 21.6%
- viability, T/C [24]: 14.4%
- viability, T/C [25]: 34.1%
- viability, T/C [26]: 19.7%
- viability, T/C [27]: 12.5%
- viability, T/C [28]: 10.8%
- viability, T/C [29]: 10.8%
- viability, T/C [30]: 4.05%
- viability, T/C [31]: 31.8%
- viability, T/C [32]: 14.3%
- viability, T/C [33]: 9.12%
- viability, T/C [34]: 8.23%
- viability, T/C [35]: 5.63%
- viability, T/C [36]: 4.88%
- viability, T/C [37]: 20.7%
- viability, T/C [38]: 10.9%
- viability, T/C [39]: 10.3%
- viability, T/C [40]: 6.53%
- viability, T/C [41]: 4.37%
- viability, T/C [42]: 4.21%
